Experiment: Drug interaction studies: co-administered drug in the presence of elagolix
Settings: for direction of the change in AUC of concomitant drug: co-administered with ORILISSA (elagolix)
[1] = Ethinyl estradiol 35 mcg and triphasic norgestimate 0.18/0.215/0.25 mg once daily, elagolix 150 mg once daily, N 21
[2] = Digoxin 0.5 mg single dose, elagolix 200 mg twice daily × 10 days, N 11
[3] = Midazolam 2 mg single dose, elagolix 150 mg once daily × 13 days, N 11
[4] = Midazolam 2 mg single dose, elagolix 300 mg twice daily × 11 days, N 20
[5] = Norethindrone 0.35 mg once daily × 112 days, elagolix 150 mg once daily × 56 days, N 32
[6] = Rosuvastatin 20 mg once daily, elagolix 300 mg twice daily × 7 days, N 10

Procedure: Drug interaction studies were performed with elagolix and other drugs that are likely to be co-administered and with drugs commonly used as probes for pharmacokinetic interactions.

## C#CC1(O)CC[C@H]2[C@@H]3CCC4=CC(=O)CC[C@@H]4[C@H]3CC[C@@]21CC (mixture of isomers) [Norgestrel]
[1]
  AUC Ratio (with elagolix vs medication alone): 0.92
  Cmax Ratio (with elagolix vs medication alone): 0.89

## C[C@H]1O[C@@H](O[C@H]2[C@@H](O)C[C@H](O[C@H]3[C@@H](O)C[C@H](O[C@H]4CC[C@@]5(C)[C@H](CC[C@@H]6[C@@H]5C[C@@H](O)[C@]5(C)[C@@H](C7=CC(=O)OC7)CC[C@]65O)C4)O[C@@H]3C)O[C@@H]2C)C[C@H](O)[C@@H]1O [Digoxin]
[2]
  AUC Ratio (with elagolix vs medication alone): 1.26
  Cmax Ratio (with elagolix vs medication alone): 1.71
  direction of the change in AUC of concomitant drug: ↑ digoxin

## C#C[C@]1(O)CC[C@H]2[C@@H]3CCc4cc(O)ccc4[C@H]3CC[C@@]21C [Ethinyl Estradiol]
[1]
  AUC Ratio (with elagolix vs medication alone): 1.30
  Cmax Ratio (with elagolix vs medication alone): 1.15

## Cc1ncc2n1-c1ccc(Cl)cc1C(c1ccccc1F)=NC2 [Midazolam]
[3]
  AUC Ratio (with elagolix vs medication alone): 0.65
  Cmax Ratio (with elagolix vs medication alone): 0.81
[4]
  AUC Ratio (with elagolix vs medication alone): 0.46
  Cmax Ratio (with elagolix vs medication alone): 0.56
  direction of the change in AUC of concomitant drug: ↓ midazolam

## C#C[C@]1(O)CC[C@H]2[C@@H]3CCC4=CC(=NO)CC[C@@H]4[C@H]3CC[C@@]21CC (mixture of isomers) [Norelgestromin]
[1]
  AUC Ratio (with elagolix vs medication alone): 0.85
  Cmax Ratio (with elagolix vs medication alone): 0.87

## C#C[C@]1(O)CC[C@H]2[C@@H]3CCC4=CC(=O)CC[C@@H]4[C@H]3CC[C@@]21C [Norethindrone]
[5]
  AUC Ratio (with elagolix vs medication alone): 0.88
  Cmax Ratio (with elagolix vs medication alone): 0.95

## CC(C)c1nc(N(C)S(C)(=O)=O)nc(-c2ccc(F)cc2)c1/C=C/[C@@H](O)C[C@@H](O)CC(=O)O [Rosuvastatin]
[6]
  AUC Ratio (with elagolix vs medication alone): 0.60
  Cmax Ratio (with elagolix vs medication alone): 0.99
  direction of the change in AUC of concomitant drug: ↓ rosuvastatin

— patent US12102637B2, “Pharmaceutical formulations for treating endometriosis, uterine fibroids, polycystic ovary syndrome or adenomyosis” (AbbVie Inc., priority 2017, dated 2024)
